# Test results from patent US20230028441A1, “NOVEL HETEROARYL-TRIAZOLE COMPOUNDS AS PESTICIDES” (Bayer Aktiengesellschaft, priority 2019, published 2023).
# How the values were obtained:
# Type in all cases: in vivo
# [1] = tested on: green peach aphid (Myzus persicae); assay: Myzus persicae oral test; conditions: 120 h
# Method in brief: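 Aphids of mixed population ingest the compound preparation by sucking through a parafilm sheet stretched over wells holding test solution plus IPL41 insect medium (33%+15% sugar). Kill rate in percent is determined five days later.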
# [2] = tested on: southern root-knot nematode (Meloidogyne incognita); assay: Meloidogyne incognita test; conditions: 336 h, after 14 days, read-out: nematicidal activity (gall formation)
# Method: Solvent: 125.0 parts by weight of acetone
# To produce a suitable preparation of active compound, 1 part by weight of active compound is mixed with the stated amount of solvent, and the concentrate is diluted with water to the desired concentration.
# Vessels are filled with sand, a solution of the active ingredient, a suspension containing eggs and larvae of the southern root-knot nematode (Meloidogyne incognita) and salad seeds. The salad seeds germinate and the seedlings grow. Galls develop in the roots.
# After 14 days the nematicidal activity is determined on the basis of the percentage of gall formation. 100% means no galls were found and 0% means the number of galls found on the roots of the treated plants was equal to that in untreated control plants.
# [3] = tested on: adult unfed cat fleas (Ctenocephalides felis); assay: Ctenocephalides felis oral test; conditions: 48 h, 100 ppm in cattle blood, after 2 days
# Method in brief: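 Percent flea mortality recorded at 2 days. Compound was dissolved in dimethyl sulfoxide and diluted into cattle blood, which ~20 unfed adult cat fleas ingested through parafilm from a 37°C-heated chamber, their own chamber kept at room temperature.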
# [4] = tested on: fall armyworm larvae (Spodoptera frugiperda); assay: Spodoptera frugiperda spray test (maize leaf sections); conditions: 168 h
# Method in brief: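 Percent kill of Spodoptera frugiperda larvae was recorded 7 days after infesting dried, treated maize leaf sections. Spray solutions were made from an acetone/DMF compound preparation diluted with 1000 ppm emulsifier-containing water.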
# [5] = tested on: larvae of the banded cucumber beetle (Diabrotica balteata); assay: Diabrotica balteata spray test; conditions: 168 h, after 7 days, wheat seeds, read-out: efficacy (seedlings grown up); for pest or weed control at 160 µg/disc, 500 g/ha: 500 g/ha (=160 μg/well); for pest or weed control at 32 µg/disc, 100 g/ha: 100 g/ha (=32 μg/well)
# Method in brief: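 Efficacy (%) read at day 7: 100% means seedlings grew like untreated, uninfested controls; 0% means no seedlings grew. Wheat seeds germinated 1 day on agar, sprayed with emulsified compound solution (1000 ppm emulsifier in water), then each well infested with 10-20 larvae.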
# [6] = tested on: adult engorged female ticks (Rhipicephalus microplus); assay: Rhipicephalus (Boophilus) microplus injection test; conditions: 168 h, egg deposition after 7 days, read-out: efficacy (infertile eggs); for pest or weed control at 0.004 mg: 4 μg/animal; for pest or weed control at 0.02 mg: 20 μg/animal
# Method in brief: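 Efficacy is the share of infertile eggs: 100% means none are fertile, 0% means all are fertile. Egg deposition was checked 7 days after injecting 1 μL of DMSO-diluted compound into the abdomen of five engorged female R. microplus, with doubtful eggs kept about 42 days to hatching. The stock was 10 mg in 0.5 mL DMSO.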
# [7] = tested on: larvae of the southern green stink bug (Nezara viridula); assay: Nezara viridula spray test; conditions: in Hordeum vulgare, 96 h
# Method in brief: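 Percent mortality of southern green stink bug larvae read 4 days after spraying infested Hordeum vulgare. Test solutions: compound in acetone plus dimethylformamide, diluted with emulsifier-containing water (1000 ppm alkylarylpolyglycol ether).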
# [8] = tested on: cattle tick larvae (Rhipicephalus microplus), strain Parkhurst, resistant against synthetic pyrethroids; assay: Rhipicephalus (Boophilus) microplus in-vitro contact test, larval cattle tick; conditions: 5 μg/cm^2 (=500 g/ha), after 48 hours, read-out: efficacy (larvae dead or moribund)
# Method in brief: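 Efficacy, 100% meaning all larvae dead or moribund, was judged at 48 h from loss of negative geotactic climbing. Larvae of the Parkhurst strain, 20–50 per tube, were exposed at 27° C and 85% humidity to acetone-coated tube surfaces; 900 ppm corresponded to 5 μg/cm^2.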
# [9] = tested on: adult brown dog ticks (Rhipicephalus sanguineus); assay: Rhipicephalus sanguineus in-vitro contact test with adult brown dog ticks; conditions: after 48 hours, read-out: efficacy (ticks dead or moribund); for pest or weed control at 1 µg/cm2, 100 g/ha: 1 μg/cm^2 (=100 g/ha); for pest or weed control at 5 µg/cm2, 500 g/ha: 5 μg/cm^2 (=500 g/ha)
# Method in brief: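 Efficacy is the percentage of adult ticks dead or moribund, meaning immotile or uncoordinated and unable to escape 45-50° C. heat within 5 min. Read 48 h after 5-10 ticks were enclosed at room temperature in acetone-coated glass tubes. Dose 5 μg/cm^2, from a 900 ppm coating solution.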
# [10] = tested on: caterpillars of the fall army worm (Spodoptera frugiperda); assay: Spodoptera frugiperda spray test (cotton leaves); conditions: 168 h
# Method: Solvent: 14 parts by weight of dimethylformamide
# Emulsifier: alkylaryl polyglycol ether
# To produce a suitable preparation of active compound, 1 part by weight of active compound is mixed with the stated amount of solvent and is diluted with water, containing an emulsifier concentration of 1000 ppm, to the desired concentration. Further test concentrations are prepared by dilution with emulsifier containing water. Ammonium salt and/or penetration enhancer in a dosage of 1000 ppm are added to the desired concentration if necessary.
# Cotton leaves (Gossypium hirsutum) are treated by being sprayed with the preparation of the active compound of the desired concentration and are infested with caterpillars of the fall army worm (Spodoptera frugiperda).
# After 7 days mortality in % is determined. 100% means all the caterpillars have been killed and 0% means none of the caterpillars have been killed.
# [11] = tested on: green peach aphid (Myzus persicae); assay: Myzus persicae spray test; conditions: foliar, 120 h, 100 g/ha, after 5 days, Chinese cabbage leaf disks
# Method in brief: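 Chinese cabbage leaf disks carrying all instars of Myzus persicae were sprayed with compound. The formulation was acetone/dimethylformamide diluted in water with 1000 ppm alkylarylpolyglycol ether emulsifier. Percent mortality was scored after 5 days, with 100% meaning all aphids killed.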
# [12] = tested on: adult cat fleas (Ctenocephalides felis); assay: Ctenocephalides felis in-vitro contact test, adult cat flea; conditions: 5 μg/cm^2 (=500 g/ha), after 48 hours, read-out: efficacy (fleas dead or moribund)
# Method in brief: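 Efficacy (%) counts fleas that are dead or moribund, meaning unable to escape heat (45-50 °C, ≤5 min) by climbing. Scoring was done 48 h after 5-10 adults were placed at room temperature in glass tubes. The tubes carried a dried acetone film of compound, 5 μg/cm^2 at 900 ppm.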
# [13] = tested on: brown planthopper (Nilaparvata lugens); assay: Nilaparvata lugens spray test; conditions: in Oryza sativa, 96 h
# Method in brief: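 Rice plants (Oryza sativa) sprayed with compound in acetone/DMF diluted in water containing 1000 ppm alkylarylpolyglycol ether emulsifier, then infested with planthoppers. Mortality % scored after 4 days (100% = all killed, 0% = none killed).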
Structure (SMILES),mortality at 4 ppm [1] [%],pest or weed control at 20 ppm [2] [%],mortality at 100 ppm [3] [%],mortality at 500 g/ha [4] [%],"pest or weed control at 160 µg/disc, 500 g/ha [5] [%]",pest or weed control at 0.004 mg [6] [%],pest or weed control at 0.02 mg [6] [%],mortality at 100 g/ha [7] [%],mortality at 500 g/ha [7] [%],pest or weed control at 5 µg/cm2 [8] [%],mortality at 100 g/ha [4] [%],"pest or weed control at 32 µg/disc, 100 g/ha [5] [%]","pest or weed control at 1 µg/cm2, 100 g/ha [9] [%]","pest or weed control at 5 µg/cm2, 500 g/ha [9] [%]",mortality at 20 ppm [10] [%],mortality at 100 g/ha [11] [%],pest or weed control at 5 µg/cm2 [12] [%],mortality at 500 g/ha [13] [%]
CC(NC(=O)c1cc(Cl)cc(OC(F)(F)F)c1)c1nc(-c2ncccn2)nn1-c1ncccn1 (stereo not drawn) [I-051],100,100,100,100,100,100,100,100,100,,,,,,,,,
CC(NC(=O)c1cc(Cl)cc(Cl)c1)c1nc(-c2ncccn2)nn1-c1ncccn1 (stereo not drawn) [I-054],90,90,100,,,,100,,,,,,,,,,,
CC(NC(=O)c1cc(Cl)cc(C(F)(F)F)c1)c1nc(-c2ncccn2)nn1-c1ncccn1 (stereo not drawn) [I-055],,90,100,,100,,100,100,100,,,,,,,,,
CC(NC(=O)c1cc(Cl)cc(S(C)(=O)=O)c1)c1nc([S+]([O-])CC(F)(F)F)nn1-c1ccc(Cl)cn1 (stereo not drawn) [I-066],,90,100,,,100,100,,,,,,,,,,,
CC(NC(=O)c1cc(Cl)cc(C(F)(F)F)c1)c1nc(C(=O)NC2CC2)nn1-c1ccc(C#N)cn1 (stereo not drawn) [I-078],90,90,100,,,100,100,,,90,100,100,,,,,,
CNc1nc(C(C)NC(=O)c2cc(Br)cc(C(F)(F)F)c2)n(-c2ncccn2)n1 (stereo not drawn) [I-092],100,,100,,,100,,100,,100,100,100,100,100,80,90,100,
CNc1nc(C(C)NC(=O)c2cc(OC(F)(F)F)cc(C3CC3)c2)n(-c2ncccn2)n1 (stereo not drawn) [I-101],100,,100,,,100,,,,100,100,100,100,100,100,90,100,
CNc1nc(C(C)NC(=O)c2cc(Br)cc(OC(F)(F)F)c2)n(-c2ncccn2)n1 (stereo not drawn) [I-103],100,,100,,,100,,100,,100,100,100,100,100,100,90,100,
C=CC(=O)Nc1nc(C(C)NC(=O)c2cc(Cl)cc(C(F)(F)F)c2)n(-c2ccc(Cl)cn2)n1 (stereo not drawn) [I-123],,90,,,,,,,100,90,100,100,,,,,100,
CNc1nc([C@H](C)NC(=O)c2cc(Cl)cc(OC(F)(F)F)c2)n(-c2ncccn2)n1 [I-129],,,,,,,,,100,100,100,100,80,80,100,90,100,90
C[C@H](NC(=O)c1cc(Br)cc(Br)c1)c1nc(N(C)C)nn1-c1ncccn1 [I-140],,,,,,,,,90,100,100,100,100,100,100,90,100,90
C[C@H](NC(=O)c1cc(Br)cc(Br)c1)c1nc(N2CCOCC2)nn1-c1ncccn1 [I-144],,90,,,,,,,,100,,100,,,,,90,
C[C@H](NC(=O)c1cc(OC(F)(F)F)cc(C2CC2)c1)c1nc(N2CCOCC2)nn1-c1ncccn1 [I-146],,100,,,,,,,100,90,100,100,,,,,,
C[C@H](NC(=O)c1cc(Br)cc(OC(F)(F)F)c1)c1nc(N2CCOCC2)nn1-c1ncccn1 [I-147],,100,,,,,,,,100,,100,,,,,,
C[C@H](NC(=O)c1cc(Cl)cc(C(C)(C)C#N)c1)c1nc(N)nn1-c1ccc(C#N)cn1 [I-155],,,,,,,,,100,100,100,100,100,100,100,100,100,100
